Test results from ChEMBL document CHEMBL5154675, “Design, Synthesis, and Biological Evaluation of 1-(Indolizin-3-yl)ethan-1-ones as CBP Bromodomain Inhibitors for the Treatment of Prostate Cancer” (J Med Chem, 2022).
Values after ≈ are worked out from the molar mass of the structure shown. Active and inactive are the calls of the source. The calls are words filed in the database; no cut-off is given here.

Legend:
LNCaP C4-2B [1] = assay: Inhibition of colony formation in human LNCaP C4-2B cells at 1 to 4 uM incubated for 14 days by crystal violet staining based assay; assay type: functional, cell-based; conditions: dose 1-4 µM, time 14.0 day
[2] = Toxicity in NOD SCID mouse xenografted with human 22Rv1 cells assessed as body weight loss at 40 mg/kg, ip administered once daily for 21 days and measured every other day; assay type: organism-based, CWR22R; conditions: in vivo, 504 h, time 21 day
[3] = molecular target: T1, Bromodomain-containing protein 9 (Homo sapiens) (UniProt Q9H8M2); conditions: dose 200.0 µM, time 30.0 min
T1 sequence (whole entry): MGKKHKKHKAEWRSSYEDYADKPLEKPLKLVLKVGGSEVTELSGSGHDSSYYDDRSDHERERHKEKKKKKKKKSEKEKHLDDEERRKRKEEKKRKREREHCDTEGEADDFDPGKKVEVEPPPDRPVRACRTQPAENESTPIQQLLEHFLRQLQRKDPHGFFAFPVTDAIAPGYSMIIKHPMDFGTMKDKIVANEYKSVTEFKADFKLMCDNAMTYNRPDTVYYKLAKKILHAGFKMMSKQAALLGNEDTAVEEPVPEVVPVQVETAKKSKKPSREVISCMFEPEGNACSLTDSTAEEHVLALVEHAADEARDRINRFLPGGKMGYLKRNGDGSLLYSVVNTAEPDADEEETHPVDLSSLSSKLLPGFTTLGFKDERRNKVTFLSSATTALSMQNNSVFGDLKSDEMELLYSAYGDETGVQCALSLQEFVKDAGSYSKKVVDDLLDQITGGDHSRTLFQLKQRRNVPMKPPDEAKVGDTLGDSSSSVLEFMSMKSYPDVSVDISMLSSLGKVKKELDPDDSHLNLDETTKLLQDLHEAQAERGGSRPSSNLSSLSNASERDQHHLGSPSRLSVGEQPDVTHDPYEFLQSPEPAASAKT

[4] = molecular target: Bromodomain testis-specific protein (Homo sapiens, UniProt Q58F21); conditions: dose 200.0 µM, time 30.0 min
[5] = Apparent permeability across apical to basolateral side in human Caco-2 cells assessed as drug recovery at 10 uM measured after 2 hrs by LC-MS/MS analysis; assay type: ADME, cell-based; conditions: read-out: Drug recovery
CREB-binding protein [6] = molecular target: T2, CREB-binding protein (Homo sapiens, UniProt Q92793); conditions: dose 200.0 µM, time 30.0 min
Target sequence in this assay (Q92793 2-2442 limits assumed): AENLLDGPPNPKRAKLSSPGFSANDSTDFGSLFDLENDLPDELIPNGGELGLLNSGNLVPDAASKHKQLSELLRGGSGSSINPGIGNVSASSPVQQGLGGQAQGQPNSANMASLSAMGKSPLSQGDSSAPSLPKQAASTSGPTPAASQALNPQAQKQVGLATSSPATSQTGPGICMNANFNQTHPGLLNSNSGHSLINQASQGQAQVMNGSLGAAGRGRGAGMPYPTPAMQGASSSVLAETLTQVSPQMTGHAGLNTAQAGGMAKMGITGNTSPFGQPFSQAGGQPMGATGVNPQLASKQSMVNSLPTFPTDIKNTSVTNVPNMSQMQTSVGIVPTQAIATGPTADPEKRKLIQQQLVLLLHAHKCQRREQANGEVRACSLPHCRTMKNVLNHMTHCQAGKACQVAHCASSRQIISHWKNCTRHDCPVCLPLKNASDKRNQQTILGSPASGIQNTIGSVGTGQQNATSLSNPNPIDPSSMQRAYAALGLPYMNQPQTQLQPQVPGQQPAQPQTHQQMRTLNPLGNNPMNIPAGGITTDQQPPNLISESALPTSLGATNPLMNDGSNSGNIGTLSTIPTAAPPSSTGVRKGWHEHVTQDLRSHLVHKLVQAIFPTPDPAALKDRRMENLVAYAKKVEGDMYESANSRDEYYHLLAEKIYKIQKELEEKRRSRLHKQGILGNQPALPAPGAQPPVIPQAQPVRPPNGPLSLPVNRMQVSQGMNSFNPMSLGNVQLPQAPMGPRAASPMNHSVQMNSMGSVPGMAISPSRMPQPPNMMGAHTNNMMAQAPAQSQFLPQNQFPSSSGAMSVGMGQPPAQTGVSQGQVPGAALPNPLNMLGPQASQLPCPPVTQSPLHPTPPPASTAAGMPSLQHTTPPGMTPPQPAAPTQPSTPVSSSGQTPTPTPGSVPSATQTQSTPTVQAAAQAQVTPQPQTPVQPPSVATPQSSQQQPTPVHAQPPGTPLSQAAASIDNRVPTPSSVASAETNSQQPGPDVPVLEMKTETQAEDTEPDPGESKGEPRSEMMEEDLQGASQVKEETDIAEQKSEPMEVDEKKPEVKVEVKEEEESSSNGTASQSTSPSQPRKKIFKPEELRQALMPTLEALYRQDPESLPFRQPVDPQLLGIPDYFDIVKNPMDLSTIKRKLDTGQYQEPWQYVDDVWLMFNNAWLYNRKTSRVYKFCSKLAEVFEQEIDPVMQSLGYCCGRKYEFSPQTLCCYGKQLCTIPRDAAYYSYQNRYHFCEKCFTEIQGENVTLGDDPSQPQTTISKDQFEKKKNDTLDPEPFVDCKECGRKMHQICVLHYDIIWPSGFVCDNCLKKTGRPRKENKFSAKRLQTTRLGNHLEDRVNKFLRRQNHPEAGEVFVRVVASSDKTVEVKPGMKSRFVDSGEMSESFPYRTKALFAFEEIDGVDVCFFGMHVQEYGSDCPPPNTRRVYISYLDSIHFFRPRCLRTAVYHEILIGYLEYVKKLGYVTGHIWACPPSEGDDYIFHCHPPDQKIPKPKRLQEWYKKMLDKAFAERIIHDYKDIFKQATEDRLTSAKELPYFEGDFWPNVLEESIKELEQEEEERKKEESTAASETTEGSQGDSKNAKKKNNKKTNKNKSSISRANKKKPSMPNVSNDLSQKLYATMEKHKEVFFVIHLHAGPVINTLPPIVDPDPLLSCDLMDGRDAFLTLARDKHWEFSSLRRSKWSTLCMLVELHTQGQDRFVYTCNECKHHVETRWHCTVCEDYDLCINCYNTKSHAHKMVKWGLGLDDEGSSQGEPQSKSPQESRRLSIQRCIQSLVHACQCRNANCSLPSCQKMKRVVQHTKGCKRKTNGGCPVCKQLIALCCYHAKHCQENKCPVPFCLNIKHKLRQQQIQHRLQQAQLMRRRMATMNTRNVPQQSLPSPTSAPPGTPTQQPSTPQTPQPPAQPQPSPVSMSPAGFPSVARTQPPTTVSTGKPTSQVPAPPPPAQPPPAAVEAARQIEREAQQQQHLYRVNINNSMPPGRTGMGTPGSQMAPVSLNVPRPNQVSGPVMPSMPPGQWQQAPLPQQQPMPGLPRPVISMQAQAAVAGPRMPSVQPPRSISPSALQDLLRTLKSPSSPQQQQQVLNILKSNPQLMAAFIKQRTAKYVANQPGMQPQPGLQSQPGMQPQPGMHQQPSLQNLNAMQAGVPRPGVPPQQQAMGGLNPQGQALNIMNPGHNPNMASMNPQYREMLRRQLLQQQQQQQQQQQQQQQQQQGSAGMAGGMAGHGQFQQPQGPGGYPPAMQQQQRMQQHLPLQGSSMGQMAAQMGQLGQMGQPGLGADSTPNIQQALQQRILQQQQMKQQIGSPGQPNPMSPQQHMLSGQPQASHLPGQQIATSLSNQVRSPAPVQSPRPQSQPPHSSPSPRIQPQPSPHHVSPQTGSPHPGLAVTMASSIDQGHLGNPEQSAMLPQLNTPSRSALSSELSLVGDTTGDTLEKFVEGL

[7] = molecular target: SWI/SNF-related matrix-associated actin-dependent regulator of chromatin subfamily A member 2 (Homo sapiens) (UniProt P51531); conditions: dose 200.0 µM, time 30.0 min
CWR22R [8] = assay: Antitumor activity against human 22Rv1 cells xenografted in NOD SCID mouse assessed as tumor growth inhibition at 40 mg/kg, ip administered once daily for 21 days and measured every other day relative to control; assay type: functional; conditions: 22Rv1, 504 h, time 21 day, read-out: TGI
LNCaP C4-2B [9] = assay: Induction of apoptosis in human LNCaP C4-2B cells assessed as increase in apoptotic cells at 20 uM measured after 48 hrs by Annexin V-FITC and propidium iodide staining based flow cytometry (Rvb= 1%); assay type: functional
[10] = molecular target: Histone acetyltransferase p300 (Homo sapiens) (UniProt Q09472); conditions: dose 200.0 µM, time 30.0 min
[11] = Apparent permeability across basolateral to apical side in human Caco-2 cells assessed as drug recovery at 10 uM measured after 2 hrs by LC-MS/MS analysis; assay type: ADME, cell-based; conditions: read-out: Drug recovery
LNCaP C4-2B [12] = assay: Suppression of c-Myc protein expression in human LNCaP C4-2B cells at 5 uM incubated for 48 hrs by Western blot analysis; assay type: functional, cell-based
CWR22R [13] = assay: Suppression of full length Androgen receptor gene expression in human 22Rv1 cells incubated for 48 hrs by SYBR green dye-based qRT-PCR analysis; assay type: functional, cell-based; conditions: dose 0-20 µM, DDE = dose-dependent effect
[14] = Toxicity in NOD SCID mouse xenografted with human 22Rv1 cells assessed as mortality at 40 mg/kg, ip administered once daily for 21 days; assay type: organism-based, CWR22R; conditions: in vivo, 504 h, time 21 day
[15] = molecular target: PH-interacting protein (Homo sapiens) (UniProt Q8WWQ0); conditions: dose 200.0 µM, time 30.0 min
CWR22R [16] = assay: Antimigratory activity against human 22Rv1 cells assessed as reduction in cell migration at 5 uM incubated for 48 hrs by bright-field microscopy based wound healing assay relative to control; assay type: functional; set-up: scale not given: the % may be the effect or the level left
[17] = AUC (0 to infinity) in Sprague-Dawley rat at 5 mg/kg, iv administered as single dose measured up to 24 hrs; assay type: ADME, organism-based; set-up: time < 24 hrs, dose 5 mg/kg, route iv; conditions: in vivo, 24 h
CWR22R [18] = assay: Antiproliferative activity against human 22Rv1 cells assessed as cell growth inhibition by Celltiter-Glo assay; assay type: functional, cell-based
[19] = Metabolic stability in rat liver microsomes assessed as parent compound remaining at 1 uM incubated for 45 mins in presence of NADPH by LC-MS/MS analysis; assay type: ADME, Microsome; conditions: read-out: Stability
[20] = Metabolic stability in human liver microsomes assessed as parent compound remaining at 1 uM incubated for 45 mins in presence of NADPH by LC-MS/MS analysis; assay type: ADME, Microsome; conditions: read-out: Stability
[21] = molecular target: T3, Bromodomain-containing protein 3 (Homo sapiens, UniProt Q15059); conditions: dose 200.0 µM, time 30.0 min
LNCaP = assay: Suppression of Androgen receptor target-gene expression in human LNCaP cells at 5 uM incubated for 48 hrs by SYBR green dye-based qRT-PCR analysis; assay type: functional, cell-based
[22] = molecular target: T4, Bromodomain-containing protein 2 (Homo sapiens, UniProt P25440); conditions: dose 200.0 µM, time 30.0 min
[23] = molecular target: T4, Bromodomain-containing protein 2; conditions: dose 200.0 µM, time 30.0 min; remark: listed apart in the source
LNCaP C4-2B [24] = assay: Antiproliferative activity against human LNCaP C4-2B cells assessed as inhibition of cell growth by Celltiter-Glo assay; assay type: functional, cell-based
[25] = molecular target: T3, Bromodomain-containing protein 3; conditions: dose 200.0 µM, time 30.0 min; remark: listed apart in the source
[26] = Hepatic clearance in rat liver microsomes at 1 uM incubated for 45 mins in presence of NADPH by LC-MS/MS analysis; assay type: ADME, Microsome
[27] = AUC (0 to infinity) in Sprague-Dawley rat at 25 mg/kg, po measured up to 24 hrs; assay type: ADME, organism-based; set-up: time < 24 hrs, dose 25 mg/kg, route po; conditions: in vivo
CWR22R [28] = assay: Inhibition of colony formation in human 22Rv1 cells at 1 to 4 uM incubated for 14 days by crystal violet staining based assay; assay type: functional, cell-based; conditions: dose 1-4 µM, time 14.0 day
CREB-binding protein [29] = molecular target: T2, CREB-binding protein; assay: Inhibition of His6-tagged human CBP bromodomain (1081 to 1197 residues) expressed in Escherichia coli BL21 (DE3) incubated for 30 mins by HTRF assay
[30] = Aqueous solubility of compound in PBS buffer at pH 7.2 measured after 24 hrs by HPLC analysis; assay type: physicochemical
[31] = Cmax in Sprague-Dawley rat at 25 mg/kg, po measured up to 24 hrs; assay type: ADME, organism-based; set-up: dose 25 mg/kg, time < 24 hrs, route po; conditions: in vivo
[32] = Apparent permeability across apical to basolateral side in human Caco-2 cells at 10 uM measured after 2 hrs by LC-MS/MS analysis; assay type: ADME, cell-based

T3 sequence (Q15059 2-726 limits assumed): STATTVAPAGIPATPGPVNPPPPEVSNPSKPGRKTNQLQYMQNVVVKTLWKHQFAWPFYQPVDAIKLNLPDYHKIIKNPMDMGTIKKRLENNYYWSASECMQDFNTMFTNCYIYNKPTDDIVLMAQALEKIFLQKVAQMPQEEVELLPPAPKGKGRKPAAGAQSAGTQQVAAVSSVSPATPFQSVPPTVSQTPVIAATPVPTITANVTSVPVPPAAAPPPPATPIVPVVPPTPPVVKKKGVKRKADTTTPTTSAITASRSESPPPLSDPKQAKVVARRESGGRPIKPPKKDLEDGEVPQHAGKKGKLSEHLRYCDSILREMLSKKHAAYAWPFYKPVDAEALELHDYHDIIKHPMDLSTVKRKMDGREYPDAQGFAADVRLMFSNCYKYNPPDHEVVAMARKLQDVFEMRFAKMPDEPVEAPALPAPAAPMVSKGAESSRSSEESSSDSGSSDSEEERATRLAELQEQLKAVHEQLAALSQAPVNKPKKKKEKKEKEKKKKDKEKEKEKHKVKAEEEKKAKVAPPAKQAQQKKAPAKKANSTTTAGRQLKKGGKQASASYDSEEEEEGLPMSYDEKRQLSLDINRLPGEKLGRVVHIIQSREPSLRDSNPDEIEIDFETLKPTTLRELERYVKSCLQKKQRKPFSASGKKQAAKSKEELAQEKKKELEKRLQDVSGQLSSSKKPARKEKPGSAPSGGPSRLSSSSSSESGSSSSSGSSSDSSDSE
T4 sequence (P25440 whole entry, looked up): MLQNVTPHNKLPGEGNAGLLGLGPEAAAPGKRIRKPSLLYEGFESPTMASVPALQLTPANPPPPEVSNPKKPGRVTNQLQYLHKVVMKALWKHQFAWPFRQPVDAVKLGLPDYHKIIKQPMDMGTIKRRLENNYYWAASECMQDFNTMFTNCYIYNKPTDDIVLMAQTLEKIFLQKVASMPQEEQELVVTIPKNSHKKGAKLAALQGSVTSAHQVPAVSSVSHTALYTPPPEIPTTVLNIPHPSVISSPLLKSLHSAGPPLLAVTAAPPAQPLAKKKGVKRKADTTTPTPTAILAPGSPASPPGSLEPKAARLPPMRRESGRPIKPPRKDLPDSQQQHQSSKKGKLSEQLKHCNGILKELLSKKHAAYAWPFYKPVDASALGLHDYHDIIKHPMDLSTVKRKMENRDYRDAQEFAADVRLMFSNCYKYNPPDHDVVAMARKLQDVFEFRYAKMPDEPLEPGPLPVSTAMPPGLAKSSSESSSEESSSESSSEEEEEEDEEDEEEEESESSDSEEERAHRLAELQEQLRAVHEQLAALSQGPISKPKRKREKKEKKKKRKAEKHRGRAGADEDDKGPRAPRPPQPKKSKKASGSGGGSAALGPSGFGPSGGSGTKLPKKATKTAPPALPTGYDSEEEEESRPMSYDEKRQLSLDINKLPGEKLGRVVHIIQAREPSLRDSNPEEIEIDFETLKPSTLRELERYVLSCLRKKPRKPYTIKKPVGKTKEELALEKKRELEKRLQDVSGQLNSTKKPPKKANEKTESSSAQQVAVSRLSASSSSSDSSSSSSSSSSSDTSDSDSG

With COc1ccn2c(C(C)=O)cc(C(=O)Nc3cc(C(C)O)cc(-c4cnn(C5CC5)c4)c3F)c2c1 (stereo not drawn) the inhibition (LNCaP C4-2B [1]) was “Active”, the Activity [2] was “Non-Toxic” and the ΔTm [3] was 5 °C. It also gave a ΔTm [4] of -3.3 °C, a recovery at 2 h, 10 µM [5] of 41.2% and a ΔTm (CREB-binding protein [6]) of 11.5 °C. It also gave a ΔTm [7] of -0.5 °C, an inhibition in vivo at 40 mg/kg (CWR22R [8]) of 88% and an Activity (LNCaP C4-2B [9]) of 13.08%. The ΔTm [10] was 12 °C, the recovery at 2 h, 10 µM [11] was 37.3% and the Activity (LNCaP C4-2B [12]) was “Active”. For the same compound, the Activity (CWR22R [13]) was “Dde”, the Activity [14] was “Non-Toxic” and the ΔTm [15] was 0 °C. It also gave an Activity (CWR22R [16]) of 60%, an AUC [17] of 3715.71 ng·h/mL and an IC50 (CWR22R [18]) of 2040 nM. For the same compound, the remaining at 0.75 h, 1 µM [19] was 50.7%, the remaining at 0.75 h, 1 µM [20] was 23.1% and the ΔTm [21] was -2.5 °C. For the same compound, the Activity (LNCaP) was “Active”, the ΔTm [22] was -0.8 °C and the ΔTm [23] was 1 °C. The IC50 (LNCaP C4-2B [24]) was 6430 nM, the ΔTm [25] was -1.3 °C and the CLhep predicted at 1 µM [26] was 27.3 mL/min/kg. The AUC(0-inf) [27] was 4820 ng·h/mL, the inhibition (CWR22R [28]) was “Active” and the IC50 (CREB-binding protein [29]) was 4.21 nM. The solubility at 24 h [30] was 20 µg/mL (≈ 42 µM), the Cmax [31] was 1570 ng/mL and the Papp A→B at 2 h, 10 µM [32] was 6.68 ×10⁻⁶ cm/s.
